TGI data for seven compounds are collected here from PubChem BioAssay (NCI).

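Five concentrations, 48 hours, 96-well plates. TGI marks complete inhibition of growth.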

For the first assay, the system named is NCI-H460 lung. Briefly: growth of human tumour cells (NCI), 48 h.
`CCOP(=O)(OCC)c1c(C(=O)OC)cc(=O)[nH]c1-c1ccc(C)cc1`: the TGI came to 43.4 µM.

Consider `NCCN=C(Nc1ccccc1)Nc1ccccc1`, for which the TGI is > 100 µM.

For the compound `CCC1(C)N=C(c2cnccn2)NN1c1ccc(Cl)cc1` (stereo not given), the TGI is > 100 µM.

Turning to `C1CNCCNCCN1`, the TGI was > 100 µM.

In the case of `CC1Cn2c(nc3ccccc32)NC1=O` (stereo not given), the TGI is > 100 µM.

For `C/C=C/C(O)P1(=O)N(Cc2ccccc2)[C@@H]2CCCC[C@H]2N1Cc1ccccc1` (stereo not given in full), the TGI is > 25 µM.

Regarding `Cc1cn(C(Cc2ccccc2)OCCO)c(=O)[nH]c1=O` (stereo not given), the TGI was > 100 µM.

The next assay concerns BT-549 breast. In words: growth of human tumour cells (NCI), 48 h.
The compound `CCOP(=O)(OCC)c1c(C(=O)OC)cc(=O)[nH]c1-c1ccc(C)cc1` registered a TGI of 20.3 µM.

With `NCCN=C(Nc1ccccc1)Nc1ccccc1`, the TGI is > 100 µM.

For the compound `CCC1(C)N=C(c2cnccn2)NN1c1ccc(Cl)cc1` (stereo not given), the TGI was > 100 µM.

As to `C1CNCCNCCN1`, the TGI is > 100 µM.

For `CC1Cn2c(nc3ccccc32)NC1=O` (stereo not given), the TGI is > 100 µM.

Take `C/C=C/C(O)P1(=O)N(Cc2ccccc2)[C@@H]2CCCC[C@H]2N1Cc1ccccc1` (stereo not given in full): the TGI was > 25 µM.

On to `Cc1cn(C(Cc2ccccc2)OCCO)c(=O)[nH]c1=O` (stereo not given), for which the TGI is > 100 µM.

Another assay concerns SR leukemia. Briefly: growth of human tumour cells (NCI), 48 h.
The compound `CCOP(=O)(OCC)c1c(C(=O)OC)cc(=O)[nH]c1-c1ccc(C)cc1` registered a TGI of 11.5 µM.

With `NCCN=C(Nc1ccccc1)Nc1ccccc1`, the TGI was > 100 µM.

Regarding `CCC1(C)N=C(c2cnccn2)NN1c1ccc(Cl)cc1` (stereo not given), the TGI is 76.2 µM.

With `C1CNCCNCCN1`, the TGI was > 100 µM.

Take `CC1Cn2c(nc3ccccc32)NC1=O` (stereo not given): the TGI was > 100 µM.

Regarding `C/C=C/C(O)P1(=O)N(Cc2ccccc2)[C@@H]2CCCC[C@H]2N1Cc1ccccc1` (stereo not given in full), the TGI is > 25 µM.

With `Cc1cn(C(Cc2ccccc2)OCCO)c(=O)[nH]c1=O` (stereo not given), the TGI is > 100 µM.

A further assay deals with COLO 205 colon. In words: growth of human tumour cells (NCI), 48 h.
With `CCOP(=O)(OCC)c1c(C(=O)OC)cc(=O)[nH]c1-c1ccc(C)cc1`, the TGI stood at 15.2 µM.

In the case of `NCCN=C(Nc1ccccc1)Nc1ccccc1`, the TGI is > 100 µM.

Take `CCC1(C)N=C(c2cnccn2)NN1c1ccc(Cl)cc1` (stereo not given): the TGI is > 100 µM.

Take `C1CNCCNCCN1`: the TGI is > 100 µM.

For `CC1Cn2c(nc3ccccc32)NC1=O` (stereo not given), the TGI is > 100 µM.

Take `C/C=C/C(O)P1(=O)N(Cc2ccccc2)[C@@H]2CCCC[C@H]2N1Cc1ccccc1` (stereo not given in full): the TGI was > 25 µM.

As to `Cc1cn(C(Cc2ccccc2)OCCO)c(=O)[nH]c1=O` (stereo not given), the TGI is > 100 µM.

A further assay deals with HOP-62 NSCLC. In words: growth of human tumour cells (NCI), 48 h.
`CCOP(=O)(OCC)c1c(C(=O)OC)cc(=O)[nH]c1-c1ccc(C)cc1`: the TGI turned out to be 41.7 µM.

Take `NCCN=C(Nc1ccccc1)Nc1ccccc1`: the TGI is > 100 µM.

With `CCC1(C)N=C(c2cnccn2)NN1c1ccc(Cl)cc1` (stereo not given), the TGI was > 100 µM.

On to `C1CNCCNCCN1`, for which the TGI was > 100 µM.

As for `CC1Cn2c(nc3ccccc32)NC1=O` (stereo not given), the TGI is > 100 µM.

Take `C/C=C/C(O)P1(=O)N(Cc2ccccc2)[C@@H]2CCCC[C@H]2N1Cc1ccccc1` (stereo not given in full): the TGI was > 25 µM.

As for `Cc1cn(C(Cc2ccccc2)OCCO)c(=O)[nH]c1=O` (stereo not given), the TGI was > 100 µM.

Another assay has as its system PC-3 prostate. Briefly: growth of human tumour cells (NCI), 48 h.
Regarding `CCOP(=O)(OCC)c1c(C(=O)OC)cc(=O)[nH]c1-c1ccc(C)cc1`, the TGI was found to be 34.2 µM.

For `NCCN=C(Nc1ccccc1)Nc1ccccc1`, the TGI is > 100 µM.

On to `CCC1(C)N=C(c2cnccn2)NN1c1ccc(Cl)cc1` (stereo not given), for which the TGI was > 100 µM.

Consider `C1CNCCNCCN1`, for which the TGI was > 100 µM.

Consider `CC1Cn2c(nc3ccccc32)NC1=O` (stereo not given), for which the TGI was > 100 µM.

Consider `C/C=C/C(O)P1(=O)N(Cc2ccccc2)[C@@H]2CCCC[C@H]2N1Cc1ccccc1` (stereo not given in full), for which the TGI is > 25 µM.

As for `Cc1cn(C(Cc2ccccc2)OCCO)c(=O)[nH]c1=O` (stereo not given), the TGI is > 100 µM.

Another assay deals with HCT-116 colon. Briefly: growth of human tumour cells (NCI), 48 h.
In the case of `CCOP(=O)(OCC)c1c(C(=O)OC)cc(=O)[nH]c1-c1ccc(C)cc1`, the TGI is > 51.1 µM.

Regarding `NCCN=C(Nc1ccccc1)Nc1ccccc1`, the TGI was > 100 µM.

In the case of `CCC1(C)N=C(c2cnccn2)NN1c1ccc(Cl)cc1` (stereo not given), the TGI was > 100 µM.

In the case of `C1CNCCNCCN1`, the TGI is > 100 µM.

As for `CC1Cn2c(nc3ccccc32)NC1=O` (stereo not given), the TGI was > 100 µM.

For the compound `C/C=C/C(O)P1(=O)N(Cc2ccccc2)[C@@H]2CCCC[C@H]2N1Cc1ccccc1` (stereo not given in full), the TGI was > 25 µM.

Consider `Cc1cn(C(Cc2ccccc2)OCCO)c(=O)[nH]c1=O` (stereo not given), for which the TGI is > 100 µM.

The next assay concerns KM12 colon. Briefly: growth of human tumour cells (NCI), 48 h.
As for `CCOP(=O)(OCC)c1c(C(=O)OC)cc(=O)[nH]c1-c1ccc(C)cc1`, the TGI stood at 33.6 µM.

On to `NCCN=C(Nc1ccccc1)Nc1ccccc1`, for which the TGI was > 100 µM.

In the case of `CCC1(C)N=C(c2cnccn2)NN1c1ccc(Cl)cc1` (stereo not given), the TGI is > 100 µM.

Regarding `C1CNCCNCCN1`, the TGI was > 100 µM.

Take `CC1Cn2c(nc3ccccc32)NC1=O` (stereo not given): the TGI was > 100 µM.

As to `C/C=C/C(O)P1(=O)N(Cc2ccccc2)[C@@H]2CCCC[C@H]2N1Cc1ccccc1` (stereo not given in full), the TGI is > 25 µM.

As to `Cc1cn(C(Cc2ccccc2)OCCO)c(=O)[nH]c1=O` (stereo not given), the TGI was > 100 µM.

A further assay deals with A549 NSCLC. Briefly: growth of human tumour cells (NCI), 48 h.
`CCOP(=O)(OCC)c1c(C(=O)OC)cc(=O)[nH]c1-c1ccc(C)cc1` came in with a TGI of 31.5 µM.

Take `NCCN=C(Nc1ccccc1)Nc1ccccc1`: the TGI is > 100 µM.

As for `CCC1(C)N=C(c2cnccn2)NN1c1ccc(Cl)cc1` (stereo not given), the TGI is > 100 µM.

For the compound `C1CNCCNCCN1`, the TGI is > 100 µM.

Take `CC1Cn2c(nc3ccccc32)NC1=O` (stereo not given): the TGI was > 100 µM.

For `C/C=C/C(O)P1(=O)N(Cc2ccccc2)[C@@H]2CCCC[C@H]2N1Cc1ccccc1` (stereo not given in full), the TGI was > 25 µM.

As to `Cc1cn(C(Cc2ccccc2)OCCO)c(=O)[nH]c1=O` (stereo not given), the TGI is > 100 µM.

The subject of another assay is NCI-H226 lung. Briefly: growth of human tumour cells (NCI), 48 h.
`CCOP(=O)(OCC)c1c(C(=O)OC)cc(=O)[nH]c1-c1ccc(C)cc1` had a TGI of 29.6 µM.

Take `NCCN=C(Nc1ccccc1)Nc1ccccc1`: the TGI was > 100 µM.

Turning to `CCC1(C)N=C(c2cnccn2)NN1c1ccc(Cl)cc1` (stereo not given), the TGI was > 100 µM.

As to `C1CNCCNCCN1`, the TGI was > 100 µM.

As to `CC1Cn2c(nc3ccccc32)NC1=O` (stereo not given), the TGI is > 100 µM.

Regarding `C/C=C/C(O)P1(=O)N(Cc2ccccc2)[C@@H]2CCCC[C@H]2N1Cc1ccccc1` (stereo not given in full), the TGI was > 25 µM.

As for `Cc1cn(C(Cc2ccccc2)OCCO)c(=O)[nH]c1=O` (stereo not given), the TGI is > 100 µM.
